Measurements: US6492395B1, “Topical formulation of alkyl-, phenyl-pyridone” (Mepha AG, priority 2001, dated 2002)

Assay: Stability test, 6 months storage under standard storage conditions
Type: physicochemical
Protocol: Stability testing was carried out as above.

For Cc1ccc(=O)n(-c2ccccc2)c1 [5-methyl-1-phenyl-2-(1H)-pyridone], which “effect on physical stability of emulsions and other colloidal systems” value is on record?
The value was “emulsion destabiliser”.
